Structures can show the parent of a compound that is named as a salt. Where two headings read alike, the source gives them in different places. Some results are limits rather than exact numbers.

Common to all, as to type: cell-based
One assay concerns MV-4-11 cells. As to the kind of experiment: AML cell viability assay (RealTime-Glo). The note with it: Homo sapiens, read-out: Cell viability classification.
Assay [1] concerns the target T1, CK1α (Homo sapiens, UniProt P48729+Q96SW2). As to the kind of experiment: CK1α degradation, Jess assay in MV-4-11 cells. As to conditions: MV4-11, % reduction of CK1α compared to DMSO, MV-4-11 cells for 16 hours, normalized to β-actin, read-out: CK1α degradation classification. Details: CK1α levels were determined in MV-4-11 cells using Jess (Protein Simple); host or cells: MV-4-11; dose or concentration left out as unconfirmed. The procedure:
MM.1S and NCCIT cells were obtained from ATCC and grown in RPMI-1640 supplemented with 10% FBS. MV-4-11 cells were obtained from ATCC and grown in IMDM supplemented with 10% FBS. The cells were maintained at 37° C. under 5% CO2.
Compounds of the present disclosure was added to cells (final DMSO concentration of 0.1%) and incubated for 16 hours. CK1α levels were determined in MV-4-11 cells using Jess (Protein Simple). Briefly, whole cell lysates were prepared in lysis buffer (1×RIPA buffer [Thermo, 89900], 2 mM MgCl2 [Sigma, M1028], 0.05% Benzonase [Sigma, E1014], 1× Pierce protease inhibitor tablets EDTA-free [Thermo, A32965]). 6-20 μg of the lysates were analyzed using Jess with antibodies against CK1α (Abcam, ab108296) and β-actin (R&D Systems, MAB8929). Protein levels were normalized to β-actin levels. DC50 values were obtained using four-parameter non-linear regressions using Prism (GraphPad).
The efficacy of CK1α degradation of a part of compounds of the present disclosure was determined by treating MV-4-11 cells at […] (final DMSO concentration of 0.1%) for 16 hours. CK1α levels were determined using Jess and normalized to β-actin levels. The compounds are classified based on amount of CK1α degradation (% reduction of CK1α compared to DMSO) as follows. • A: Degradation is greater than or equal to 75%; • B: Degradation is less than […] & greater than or equal to 50%; • C: Degradation is less than […]; • ND: not determined.

In assay [2] the target is T1, CK1α. As to the kind of experiment: CK1α HiBiT assay in CK1a_HiBiT_Jurkat cells. The note with it: DC50 class, 16 hours, Nano-Glo HiBiT Lytic Detection, read-out: CK1α degradation classification. The gist of the method:
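Compounds given to 30,000 CK1a_HiBiT_Jurkat cells as 9-point half-log series from […] top, 0.5% DMSO, 16 hours. CK1α level read by Nano-Glo HiBiT lytic luminescence, normalized to DMSO; DC50 from three-parameter nonlinear regression, binned A (≤1×10^−7), B (>1×10^−7 to ≤1×10^−6), C (>1×10^−6), NA (<25% reduction at 1 uM).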
On the technique in general: HiBiT is a short tag that completes a luciferase, so light tracks the accessible tagged protein.

[3] abbreviates: MV4-11, IC50 class, MV-4-11 cells, RealTime-Glo after 44 hrs of treatment (TABLE 1).
[4] abbreviates: MV4-11, IC50 class, MV-4-11 cells, RealTime-Glo after 44 hrs of treatment (TABLE 5).

T1 sequence (P48729 whole entry): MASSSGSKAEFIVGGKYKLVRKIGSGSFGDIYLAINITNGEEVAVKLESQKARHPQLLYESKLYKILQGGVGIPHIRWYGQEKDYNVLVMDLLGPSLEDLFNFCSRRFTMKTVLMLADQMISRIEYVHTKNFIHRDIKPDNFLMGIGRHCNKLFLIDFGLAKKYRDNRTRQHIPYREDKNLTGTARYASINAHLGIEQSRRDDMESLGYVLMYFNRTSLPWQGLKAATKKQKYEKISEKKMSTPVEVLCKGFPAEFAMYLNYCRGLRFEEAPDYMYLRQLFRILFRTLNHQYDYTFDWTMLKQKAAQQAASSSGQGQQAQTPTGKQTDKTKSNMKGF
T1 sequence (Q96SW2 whole entry): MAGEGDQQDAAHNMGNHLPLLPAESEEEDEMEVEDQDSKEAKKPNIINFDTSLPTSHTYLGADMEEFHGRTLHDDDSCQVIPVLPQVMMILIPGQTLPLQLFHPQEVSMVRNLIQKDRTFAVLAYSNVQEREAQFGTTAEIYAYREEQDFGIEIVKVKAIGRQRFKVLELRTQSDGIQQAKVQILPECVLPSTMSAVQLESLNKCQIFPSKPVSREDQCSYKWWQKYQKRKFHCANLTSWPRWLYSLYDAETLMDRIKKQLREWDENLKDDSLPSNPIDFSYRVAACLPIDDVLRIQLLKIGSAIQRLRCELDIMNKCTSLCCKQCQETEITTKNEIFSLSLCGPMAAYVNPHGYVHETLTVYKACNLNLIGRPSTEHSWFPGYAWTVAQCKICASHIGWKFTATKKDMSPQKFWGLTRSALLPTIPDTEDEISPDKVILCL
T1 sequence (Q16531 whole entry partner): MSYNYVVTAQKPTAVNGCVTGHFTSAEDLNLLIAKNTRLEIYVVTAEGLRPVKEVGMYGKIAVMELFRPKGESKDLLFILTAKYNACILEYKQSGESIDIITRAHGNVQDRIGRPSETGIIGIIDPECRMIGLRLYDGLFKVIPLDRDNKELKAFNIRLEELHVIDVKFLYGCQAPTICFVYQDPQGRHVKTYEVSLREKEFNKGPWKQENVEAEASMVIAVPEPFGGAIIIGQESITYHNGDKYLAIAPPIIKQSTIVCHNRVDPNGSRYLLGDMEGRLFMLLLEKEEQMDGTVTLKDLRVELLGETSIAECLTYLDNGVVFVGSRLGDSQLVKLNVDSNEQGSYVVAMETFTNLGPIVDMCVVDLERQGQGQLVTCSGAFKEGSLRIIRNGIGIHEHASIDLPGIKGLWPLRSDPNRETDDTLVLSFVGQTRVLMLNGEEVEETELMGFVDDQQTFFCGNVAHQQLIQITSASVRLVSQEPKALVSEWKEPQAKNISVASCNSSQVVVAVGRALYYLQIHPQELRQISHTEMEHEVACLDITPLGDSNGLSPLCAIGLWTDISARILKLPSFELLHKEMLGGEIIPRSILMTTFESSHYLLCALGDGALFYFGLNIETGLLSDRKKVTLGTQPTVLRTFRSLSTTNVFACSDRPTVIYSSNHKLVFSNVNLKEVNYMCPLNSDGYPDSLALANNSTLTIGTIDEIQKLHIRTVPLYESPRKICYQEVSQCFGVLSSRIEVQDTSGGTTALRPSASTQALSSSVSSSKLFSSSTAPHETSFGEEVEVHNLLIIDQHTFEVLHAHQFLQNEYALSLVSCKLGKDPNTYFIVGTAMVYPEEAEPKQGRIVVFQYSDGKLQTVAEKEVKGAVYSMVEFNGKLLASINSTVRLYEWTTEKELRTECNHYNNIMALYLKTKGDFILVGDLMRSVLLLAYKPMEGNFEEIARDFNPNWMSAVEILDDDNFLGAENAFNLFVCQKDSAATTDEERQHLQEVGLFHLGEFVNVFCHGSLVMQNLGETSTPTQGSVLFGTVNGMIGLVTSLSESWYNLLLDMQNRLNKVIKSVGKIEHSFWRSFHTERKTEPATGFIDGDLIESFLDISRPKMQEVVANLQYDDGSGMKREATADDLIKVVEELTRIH

On to `CCCCN(C/C=C/CN)c1cccc2c1CN(C1CCC(=O)NC1=O)C2=O` (centres unmarked) [Compound 66, (E)-3-(4-((4-aminobut-2-en-1-yl)(butyl)amino)-1-oxoisoindolin-2-yl)piperidine-2,6-dione], for which, in the assay with MV-4-11 cells (setting [3]), the IC50 fell in the range of 100 to 1000 nM. Also, the Dmax at CK1α [1] lay in the range of 50 to 7500%.

Turning to `CCCCCN(CCCCNC(C)=O)c1cccc2c1CN(C1CCC(=O)NC1=O)C2=O` (centres unmarked) [Compound 82, N-(4-((2-(2,6-dioxopiperidin-3-yl)-1-oxoisoindolin-4-yl)(pentyl)amino)butyl)acetamide], the IC50 in the assay on MV-4-11 cells (setting [3]) was below 100 nM. Also, the Dmax on CK1α [1] lay within 50 to 7500%.

As to `CCCCN(CC#CCN)c1cccc2c1CN(C1CCC(=O)NC1=O)C2=O` (centres unmarked) [Compound 115, 3-(4-((4-aminobut-2-yn-1-yl)(butyl)amino)-1-oxoisoindolin-2-yl)piperidine-2,6-dione], in the assay on MV-4-11 cells (setting [3]), the IC50 is above 1000 nM. Also, the Dmax at CK1α [1] is 50 to 7500%.

As for `NCCCCN(CCCCCO)c1cccc2c1CN(C1CCC(=O)NC1=O)C2=O` (centres unmarked) [Compound 51, 3-(4-((4-aminobutyl)(5-hydroxypentyl)amino)-1-oxoisoindolin-2-yl)piperidine-2,6-dione], in the assay with MV-4-11 cells (setting [3]), the IC50 is 100 to 1000 nM. For the same compound, the Dmax on CK1α [1] fell in the range of 50 to 7500%.

With `NCCCCCCN(CCCCN)c1cccc2c1CN(C1CCC(=O)NC1=O)C2=O` (centres unmarked) [Compound 60, 3-(4-((4-aminobutyl)(6-aminohexyl)amino)-1-oxoisoindolin-2-yl)piperidine-2,6-dione], the IC50 with MV-4-11 cells (setting [3]) is below 100 nM. Besides, at CK1α [1], the Dmax is above 75%.

On to `CCCCCN(c1cccc2c1CN(C1CCC(=O)NC1=O)C2=O)[C@H]1CC[C@@H](N)CC1` (stereo partly drawn) [Compound 87, 3-(4-(((1S,4S)-4-aminocyclohexyl)(pentyl)amino)-1-oxoisoindolin-2-yl)piperidine-2,6-dione hydrochloride], for which the IC50 in the assay on MV-4-11 cells (setting [3]) is below 100 nM. In addition, on CK1α [1], the Dmax is above 75%.

Consider `NCCCCN(CCCCCCO)c1cccc2c1CN(C1CCC(=O)NC1=O)C2=O` (centres unmarked) [Compound 56, 3-(4-((4-aminobutyl)(6-hydroxyhexyl)amino)-1-oxoisoindolin-2-yl)piperidine-2,6-dione], for which the IC50 in the assay with MV-4-11 cells (setting [3]) was 100 to 1000 nM. In addition, the Dmax at CK1α [1] was in the range of 50 to 7500%.

As for `CCCN(CCCCN)c1cccc2c1CN(C1CCC(=O)NC1=O)C2=O` (centres unmarked) [Compound 4, 3-(4-((4-aminobutyl)(propyl)amino)-1-oxoisoindolin-2-yl)piperidine-2,6-dione], in the assay on MV-4-11 cells (setting [3]), the IC50 was below 100 nM. Moreover, on CK1α [1], the Dmax is above 75%.

Consider `CCCCCN(c1cccc2c1CN(C1CCC(=O)NC1=O)C2=O)[C@H]1CC[C@@H](CN)CC1` (stereo partly drawn) [Compound 89, 3-(4-(((1S,4S)-4-(aminomethyl)cyclohexyl)(pentyl)amino)-1-oxoisoindolin-2-yl)piperidine-2,6-dione hydrochloride], for which the IC50 in the assay with MV-4-11 cells (setting [3]) was below 100 nM. Besides, the Dmax at CK1α [1] was above 75%.

In the case of `CCCCCN(CCCCN)c1cccc2c1CN(C1CCC(=O)NC1=O)C2=O` (centres unmarked) [Compound 47, 3-(4-((4-aminobutyl)(pentyl)amino)-1-oxoisoindolin-2-yl)piperidine-2,6-dione], the IC50 with MV-4-11 cells (MV4-11, 44 h) is below 100 nM. The Dmax at CK1α [1] was above 75%.

On to `NC[C@H]1CC[C@@H](N(CCCC2CCOCC2)c2cccc3c2CN(C2CCC(=O)NC2=O)C3=O)CC1` (some centres unmarked) [Compound 333, 3-(4-(((1s,4s)-4-(aminomethyl)cyclohexyl)(3-(tetrahydro-2H-pyran-4-yl)propyl)amino)-1-oxoisoindolin-2-yl)piperidine-2,6-dione], for which the IC50 with MV-4-11 cells (setting [3]) is below 100 nM. Further, the Dmax on CK1α [1] is above 75%.

In the case of `O=C1CCC(N2Cc3c(cccc3N(CCC3CC3)[C@H]3CC[C@H](NCc4nccs4)CC3)C2=O)C(=O)N1` (some centres unmarked) [Compound 663, 3-{4-[(2-cyclopropylethyl)[(1r,4r)-4-[(1,3-thiazol-2-ylmethyl)amino]cyclohexyl]amino]-1-oxo-3H-isoindol-2-yl}piperidine-2,6-dione], the IC50 in the assay on MV-4-11 cells (setting [4]) is 100 to 1000 nM. Also, the DC50 at CK1α [2] was at most 100 nM.

In the case of `CN(CCCC(F)(F)F)[C@H]1CC[C@H](N(CCC2CC2)c2cccc3c2CN(C2CCC(=O)NC2=O)C3=O)CC1` (some centres unmarked) [Compound 681, 3-{4-[(2-cyclopropylethyl)[(1r,4r)-4-[methyl(4,4,4-trifluorobutyl)amino]cyclohexyl]amino]-1-oxo-3H-isoindol-2-yl}piperidine-2,6-dione], in the assay on MV-4-11 cells (setting [4]), the IC50 was below 100 nM. Further, at CK1α [2], the DC50 was at most 100 nM.

Turning to `O=C1CCC(N2Cc3c(cccc3N(CCC3CC3)C34CC(CNCCC(F)(F)F)(C3)C4)C2=O)C(=O)N1` (centres unmarked) [Compound 703, 3-{4-[(2-cyclopropylethyl)(3-{[(3,3,3-trifluoropropyl)amino]methyl}bicyclo[1.1.1]pentan-1-yl)amino]-1-oxo-3H-isoindol-2-yl}piperidine-2,6-dione], the IC50 with MV-4-11 cells (setting [4]) was in the range of 100 to 1000 nM. The DC50 on CK1α [2] is at most 100 nM.

Consider `O=C1CCC(N2Cc3c(cccc3N(CC3CC(F)(F)C3)[C@H]3CC[C@H](NCC4(C(F)(F)F)CC4)CC3)C2=O)C(=O)N1` (some centres unmarked) [Compound 655, 3-(4-{[(3,3-difluorocyclobutyl)methyl][(1r,4r)-4-({[1-(trifluoromethyl)cyclopropyl]methyl}amino)cyclohexyl]amino}-1-oxo-3H-isoindol-2-yl)piperidine-2,6-dione], for which, in the assay on MV-4-11 cells (setting [4]), the IC50 was above 1000 nM. In addition, the DC50 on CK1α [2] lay in the range of 100 to 1000 nM.

`O=C1CCC(N2Cc3c(cc(F)cc3N(CCC3CC3)[C@H]3CC[C@H](NCC4(C(F)(F)F)CC4)CC3)C2=O)C(=O)N1` (some centres unmarked) [Compound 658, 3-{4-[(2-cyclopropylethyl)[(1r,4r)-4-({[1-(trifluoromethyl)cyclopropyl]methyl}amino)cyclohexyl]amino]-6-fluoro-1-oxo-3H-isoindol-2-yl}piperidine-2,6-dione]: the IC50 in the assay with MV-4-11 cells (setting [4]) was 100 to 1000 nM. The DC50 on CK1α [2] was at most 100 nM.

In the case of `CN(CCC(F)F)[C@H]1CC[C@H](N(CCC2CC2)c2cccc3c2CN(C2CCC(=O)NC2=O)C3=O)CC1` (some centres unmarked) [Compound 683, 3-(4-((2-cyclopropylethyl)((1r,4r)-4-((3,3-difluoropropyl)(methyl)amino)cyclohexyl)amino)-1-oxoisoindolin-2-yl)piperidine-2,6-dione tris(2,2,2-trifluoroacetate)], the IC50 in the assay with MV-4-11 cells (setting [4]) is below 100 nM. For the same compound, the DC50 at CK1α [2] was at most 100 nM.

Take `O=C1CCC(N2Cc3c(cccc3N(CCC3CC3)C3CCC(N[C@H]4C[C@@H]4C(F)(F)F)CC3)C2=O)C(=O)N1` (stereo partly drawn) [Compound 678, 3-(4-((2-cyclopropylethyl)(4-(((1S,2S)-2-(trifluoromethyl)cyclopropyl)amino)cyclohexyl)amino)-1-oxoisoindolin-2-yl)piperidine-2,6-dione Trifluoroacetate]: the IC50 with MV-4-11 cells (setting [4]) is 100 to 1000 nM. At CK1α [2], the DC50 was 100 to 1000 nM.

Regarding `O=C1CCC(N2Cc3c(cccc3N(CCC3CC3)[C@H]3CC[C@H](NC45CC(C(F)(F)F)(C4)C5)CC3)C2=O)C(=O)N1` (some centres unmarked) [Compound 646, 3-{4-[(2-cyclopropylethyl)[(1r,4r)-4-{[3-(trifluoromethyl)bicyclo[1.1.1]pentan-1-yl]amino}cyclohexyl]amino]-1-oxo-3H-isoindol-2-yl}piperidine-2,6-dione; trifluoroacetic acid], the IC50 in the assay with MV-4-11 cells (setting [4]) was 100 to 1000 nM. For the same compound, the DC50 at CK1α [2] was at most 100 nM.

`O=C1CCC(N2Cc3c(cccc3N(CCC3CC3)[C@H]3CC[C@H](N4CCC(F)(F)C4)CC3)C2=O)C(=O)N1` (some centres unmarked) [Compound 670]: in the assay on MV-4-11 cells (setting [4]), the IC50 was in the range of 100 to 1000 nM. At CK1α [2], the DC50 is at most 100 nM.

Turning to `CC1(C)CC(CN(c2cccc3c2CN(C2CCC(=O)NC2=O)C3=O)[C@H]2CC[C@H](NCCC(F)(F)F)CC2)C1` (some centres unmarked) [Compound 652, 3-(4-{[(3,3-dimethylcyclobutyl)methyl][(1r,4r)-4-[(3,3,3-trifluoropropyl)amino]cyclohexyl]amino}-1-oxo-3H-isoindol-2-yl)piperidine-2,6-dione; bis(trifluoroacetic acid)], the IC50 in the assay with MV-4-11 cells (setting [4]) is above 1000 nM. Besides, the DC50 at CK1α [2] was at most 100 nM.

In the case of `O=C1CCC(N2Cc3c(cccc3N(CCC3CC3)[C@H]3CC[C@H](N4CC(C(F)(F)F)C4)CC3)C2=O)C(=O)N1` (some centres unmarked) [Compound 673], the IC50 in the assay on MV-4-11 cells (setting [4]) was above 1000 nM. Further, the DC50 at CK1α [2] was at most 100 nM.

For the origin of these results see US20250188069A1, “COMPOUNDS AND METHODS FOR DEGRADING CASEIN KINASE 1 ALPHA” (PIN THERAPEUTICS, INC., priority 2022, published 2025).
